Experiment [1] addresses TDP1 (Homo sapiens (Human), UniProt Q9NUW8). In words: TDP1 gel-based in vitro fluorescence assay. The class given is biochemical. The method, then: (§1) (TDP assay buffer: 50 mM Tris HCl, pH 7.5, 80 mM KCl, 2 mM EDTA, 1 mM DTT, 40 μg/ml BSA and 0.01% Tween-20. TDP1 (20 mg/mL in 25 mM Tris-HCl pH 7.2, 150 mM NaCl, 2 mM tris(2-carboxyethyl)phosphine) with 2 mL of well solution composed of 0.1 M MOPS/HEPES pH 7.5, 10% (w/v) PEG 8000, 20% (v/v) ethylene glycol, 0.03 M sodium fluoride, 0.03 M sodium bromide, 0.03 M sodium iodide, 0.03 M sodium bromide and sealed over […] well solution. AF647 labelling buffer: Tris-HCl (pH 7.2, 25 mM), NaCl (150 mM), and tris(2-carboxyethyl)phosphine hydrochloride (TCEP, 2 mM).)
(§2) (DNA only: Buffer+DMSO. DMSO only: Enzyme+DMSO. Drug: Enzyme+Drug, 25° C., 10 min+DNA, reaction at 25° C., 15 min.)
Gel images were scanned using a Typhoon FLA 9500 scanner (GE Healthcare) and densitometric analyses were performed using the ImageQuant software (GE Healthcare). The IC50 of TDP1 inhibitors was calculated by comparing the percentage of cleavage product (5′Cy5-[…]-p-3′) to DMSO control.

The target in experiment [2] is TDP2 (Homo sapiens (Human), UniProt O95551). In words: gel-based TDP2 fluorescence assay in vitro. The class given is biochemical. The following applies: read-out: TDP2 IC50. On the procedure:
as §1, §2

Where [3] appears, read: Table 1, imidazo[1,2-a]pyridin-3-amines, read-out: IC50.
[4] abbreviates: Table 10, PROTACs, read-out: TDP1 IC50.
[5] abbreviates: Table 7, HPLC-purified oxime leads.

SMILES strings stand for the structures. Read-outs that look alike come from different tables or passages of the source. A value given as a limit tells only on which side of the number the result lay.

Experimental findings from patent US20250011330A1, “Imidazo[1,2- a]pyrazine and Imidazo[1,2- a]pyridine Based Tyrosyl-DNA Phosphodiesterase I (TDP1) Inhibitors” (The USA, As Represented by the Secretary, Department of …, priority 2021, published 2025) are described below.

The IC50 is the midpoint of a concentration-inhibition curve.

TDP1, sequence (Q9NUW8 whole entry): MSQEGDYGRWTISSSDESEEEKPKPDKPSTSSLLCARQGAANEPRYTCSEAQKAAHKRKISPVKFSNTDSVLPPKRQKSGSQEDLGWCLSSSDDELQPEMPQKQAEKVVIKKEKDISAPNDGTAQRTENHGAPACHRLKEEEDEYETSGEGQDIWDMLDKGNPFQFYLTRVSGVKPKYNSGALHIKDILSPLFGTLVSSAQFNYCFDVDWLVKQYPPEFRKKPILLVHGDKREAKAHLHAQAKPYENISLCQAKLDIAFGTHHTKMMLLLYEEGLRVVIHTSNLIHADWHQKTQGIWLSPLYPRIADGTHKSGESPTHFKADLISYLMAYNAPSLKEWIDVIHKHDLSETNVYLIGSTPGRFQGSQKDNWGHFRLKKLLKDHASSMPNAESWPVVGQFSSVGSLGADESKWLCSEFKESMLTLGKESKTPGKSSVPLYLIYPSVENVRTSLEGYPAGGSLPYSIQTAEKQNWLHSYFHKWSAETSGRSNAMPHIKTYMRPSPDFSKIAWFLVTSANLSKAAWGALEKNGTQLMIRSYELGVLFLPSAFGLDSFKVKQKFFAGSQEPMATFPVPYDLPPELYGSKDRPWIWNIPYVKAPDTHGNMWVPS
TDP2, sequence (O95551 whole entry, species assumed): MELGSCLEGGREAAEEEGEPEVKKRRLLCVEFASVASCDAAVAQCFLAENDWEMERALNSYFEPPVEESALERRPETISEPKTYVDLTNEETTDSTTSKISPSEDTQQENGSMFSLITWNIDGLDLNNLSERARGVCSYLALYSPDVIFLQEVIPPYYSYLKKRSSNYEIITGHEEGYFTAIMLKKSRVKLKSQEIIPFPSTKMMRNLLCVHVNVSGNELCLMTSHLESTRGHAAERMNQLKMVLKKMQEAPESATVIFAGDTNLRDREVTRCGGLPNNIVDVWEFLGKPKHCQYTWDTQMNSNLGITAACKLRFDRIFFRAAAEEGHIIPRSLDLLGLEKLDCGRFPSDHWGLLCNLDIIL

Turning to `O=C(O)c1ccc(Nc2c(-c3ccc(C(F)(F)F)cc3)nc3ccccn23)cc1` [Compound 8d, 4-((2-(4-(Trifluoromethyl)phenyl)imidazo[1,2-a]pyridin-3-yl)amino)benzoic acid], the IC50 in experiment [1] (setting [3]) was found to be 4.2 µM. On the same count and under the same terms, under `O=C(O)c1ccc(Nc2c(-c3ccc([N+](=O)[O-])cc3)nc3ccccn23)cc1` [Compound 8e, 4-((2-(4-Nitrophenyl)imidazo[1,2-a]pyridin-3-yl)amino)benzoic acid] stands 3.2 µM; under `O=C(O)c1ccc(Nc2c(-c3ccc(O)cc3)nc3ccccn23)cc1` [Compound 8f, 4-((2-(4-Hydroxyphenyl)imidazo[1,2-a]pyridin-3-yl)amino)benzoic acid], greater than 100 µM.

In the case of `O=C(O)c1ccc(Nc2c(-c3ccc(S(=O)(=O)O)cc3)nc3ccccn23)cc1` [Compound 8g, 4-((2-(4-Sulfophenyl)imidazo[1,2-a]pyridin-3-yl)amino)benzoic acid], in experiment [1] (setting [3]), the concentration for half-maximal inhibition (IC50) was greater than 100 µM.

`O=C(O)c1ccc(Nc2c(-c3ccc(C(=O)O)cc3)nc3ccccn23)cc1` [Compound 8h, 4-(3-((4-Carboxyphenyl)amino)imidazo[1,2-a]pyridin-2-yl)benzoic acid]: the IC50 in experiment [1] (setting [3]) is greater than 100 µM. Still for that read-out and setting: under `O=C(O)c1ccc(-c2nc3ccccn3c2Nc2ccccc2)cc1` [Compound 8i, 4-(3-(Phenylamino)imidazo[1,2-a]pyridin-2-yl)benzoic acid] stands 40.1 µM; under `O=C(O)c1ccc(Nc2c(-c3ccccc3C(=O)O)nc3ccc(C(=O)O)cn23)cc1` [Compound 8j, 2-(2-Carboxyphenyl)-3-((4-carboxyphenyl)amino)imidazo[1,2-a]pyridine-6-carboxylic acid], greater than 100 µM. The same measure, in the same setting: under `O=C(O)c1ccc2nc(-c3ccccc3)c(Nc3ccccc3)n2c1` [Compound 8k, 2-Phenyl-3-(phenylamino)imidazo[1,2-a]pyridine-6-carboxylic acid] stands 2.4 µM. Still for that read-out and setting: under `O=C(O)c1ccc2nc(-c3ccccc3)c(Nc3ccc([N+](=O)[O-])cc3)n2c1` [Compound 8l, 3-((4-Nitrophenyl)amino)-2-phenylimidazo[1,2-a]pyridine-6-carboxylic acid] stands 22 µM; under `CS(=O)(=O)c1ccc2nc(-c3ccc(-c4ccccc4)cc3)c(Nc3ccc(C(=O)O)cc3)n2c1` [Compound 8r, 4-((2-([1,1′-Biphenyl]-4-yl)-6-(methylsulfonyl)imidazo[1,2-a]pyridin-3-yl)amino)benzoic acid], 9.95 µM.

As to `O=C(O)c1cccc(Nc2c(-c3ccccc3)nc3cnccn23)c1` [Compound 71], the IC50 in experiment [1] (Table 2, imidazo[1,2-a]pyrazin-3-amine core, read-out: IC50) was greater than 1000 µM.

As for `Cc1ccc(-c2nc3cnccn3c2Nc2cccc(C(=O)O)c2)cc1` [Compound M8], in experiment [1] (Table 3, values in brackets (footnote vi), read-out: TDP1 IC50 (μM), separated data from previous experiments), the IC50 came out at 233 µM. As for `Cc1ncsc1-c1ccc(CNC(=O)[C@@H]2C[C@@H](O)CN2C(=O)[C@@H](NC(=O)COCCOCCOCCn2cc(COc3ccc(-c4nc5cc(-c6ccccc6)ccn5c4Nc4ccc(C(=O)O)cc4)cc3)nn2)C(C)(C)C)cc1` [XZ680, 4-((2-(4-((1-((S)-13-((2S,4R)-4-hydroxy-2-((4-(4-methylthiazol-5-yl)benzyl)carbamoyl)pyrrolidine-1-carbonyl)-14,14-dimethyl-11-oxo-3,6,9-trioxa-12-azapentadecyl)-1H-1,2,3-triazol-4-yl)methoxy)phenyl)-7-phenylimidazo[1,2-a]pyridin-3-yl)amino)benzoic acid], the 50% inhibitory concentration (IC50) in experiment [2] (Table 10, PROTACs) is greater than 100 µM; in experiment [1] (setting [4]) it was greater than 100 µM. As to `Cc1ncsc1-c1ccc(CNC(=O)[C@@H]2C[C@@H](O)CN2C(=O)[C@@H](NC(=O)COCCOCCOCCOCCn2cc(COc3ccc(-c4nc5cc(-c6ccccc6)ccn5c4Nc4ccc(C(=O)O)cc4)cc3)nn2)C(C)(C)C)cc1` [XZ681, 4-((2-(4-((1-((S)-16-((2S,4R)-4-Hydroxy-2-((4-(4-methylthiazol-5-yl)benzyl)carbamoyl)pyrrolidine-1-carbonyl)-17,17-dimethyl-14-oxo-3,6,9,12-tetraoxa-15-azaoctadecyl)-1H-1,2,3-triazol-4-yl)methoxy)phenyl)-7-phenylimidazo[1,2-a]pyridin-3-yl)amino)benzoic acid], the IC50 was greater than 100 µM in experiment [2] (Table 10, PROTACs) and greater than 100 µM in experiment [1] (setting [4]). Regarding `Cc1ncsc1-c1ccc(CNC(=O)[C@@H]2C[C@@H](O)CN2C(=O)[C@@H](NC(=O)COCCOCCn2cc(-c3ccn4c(Nc5ccc(C(=O)O)cc5)c(-c5ccccc5)nc4c3)nn2)C(C)(C)C)cc1` [XZ682, 4-((7-(1-(2-(2-(2-(((S)-1-((2S,4R)-4-Hydroxy-2-((4-(4-methylthiazol-5-yl)benzyl)carbamoyl)pyrrolidin-1-yl)-3,3-dimethyl-1-oxobutan-2-yl)amino)-2-oxoethoxy)ethoxy)ethyl)-1H-1,2,3-triazol-4-yl)-2-phenylimidazo[1,2-a]pyridin-3-yl)amino)benzoic acid], the 50% inhibitory concentration (IC50) is greater than 100 µM in experiment [2] (Table 10, PROTACs) and greater than 100 µM in experiment [1] (setting [4]). Take `Cc1ncsc1-c1ccc(CNC(=O)[C@@H]2C[C@@H](O)CN2C(=O)[C@@H](NC(=O)COCCOCCOCCn2cc(-c3ccn4c(Nc5ccc(C(=O)O)cc5)c(-c5ccccc5)nc4c3)nn2)C(C)(C)C)cc1` [XZ683, 4-((7-(1-((S)-13-((2S,4R)-4-Hydroxy-2-((4-(4-methylthiazol-5-yl)benzyl)carbamoyl)pyrrolidine-1-carbonyl)-14,14-dimethyl-11-oxo-3,6,9-trioxa-12-azapentadecyl)-1H-1,2,3-triazol-4-yl)-2-phenylimidazo[1,2-a]pyridin-3-yl)amino)benzoic acid]: the IC50 in experiment [2] (Table 10, PROTACs) was greater than 100 µM; in experiment [1] (setting [4]) it was greater than 100 µM. For the compound `Cc1ncsc1-c1ccc(CNC(=O)[C@@H]2C[C@@H](O)CN2C(=O)[C@@H](NC(=O)COCCOCCOCCOCCn2cc(-c3ccn4c(Nc5ccc(C(=O)O)cc5)c(-c5ccccc5)nc4c3)nn2)C(C)(C)C)cc1` [XZ684, 4-((7-(1-((S)-16-((2S,4R)-4-Hydroxy-2-((4-(4-methylthiazol-5-yl)benzyl)carbamoyl)pyrrolidine-1-carbonyl)-17,17-dimethyl-14-oxo-3,6,9,12-tetraoxa-15-azaoctadecyl)-1H-1,2,3-triazol-4-yl)-2-phenylimidazo[1,2-a]pyridin-3-yl)amino)benzoic acid], the IC50 in experiment [2] (Table 10, PROTACs) is greater than 100 µM; in experiment [1] (setting [4]), greater than 100 µM.

Take `O=C(COc1cccc2c1C(=O)N(C1CCC(=O)NC1=O)C2=O)NCCCCn1cc(-c2ccn3c(Nc4ccc(C(=O)O)cc4)c(-c4ccccc4)nc3c2)nn1` (stereo not drawn) [XZ685, 4-((7-(1-(4-(2-((2-(2,6-dioxopiperidin-3-yl)-1,3-dioxoisoindolin-4-yl)oxy)acetamido)butyl)-1H-1,2,3-triazol-4-yl)-2-phenylimidazo[1,2-a]pyridin-3-yl)amino)benzoic acid]: the half-maximal inhibitory concentration (IC50) in experiment [2] (Table 10, PROTACs) is greater than 100 µM; in experiment [1] (setting [4]), greater than 100 µM. In the case of `O=C(COc1cccc2c1C(=O)N(C1CCC(=O)NC1=O)C2=O)NCCCCn1cc(COc2ccc(-c3nc4cc(-c5ccccc5)ccn4c3Nc3ccc(C(=O)O)cc3)cc2)nn1` (stereo not drawn) [XZ686, 4-((2-(4-((1-(4-(2-((2-(2,6-Dioxopiperidin-3-yl)-1,3-dioxoisoindolin-4-yl)oxy)acetamido)butyl)-1H-1,2,3-triazol-4-yl)methoxy)phenyl)-7-phenylimidazo[1,2-a]pyridin-3-yl)amino)benzoic acid], the IC50 in experiment [2] (Table 10, PROTACs) is greater than 100 µM; in experiment [1] (setting [4]), greater than 100 µM. With `O=C(COc1cccc2c1C(=O)N(C1CCC(=O)NC1=O)C2=O)NCCCCn1cc(COc2ccc(-c3nc4ccccn4c3Nc3ccc(C(=O)O)cc3)cc2)nn1` (stereo not drawn) [XZ688, 4-((2-(4-((1-(4-(2-((2-(2,6-Dioxopiperidin-3-yl)-1,3-dioxoisoindolin-4-yl)oxy)acetamido)butyl)-1H-1,2,3-triazol-4-yl)methoxy)phenyl)imidazo[1,2-a]pyridin-3-yl)amino)benzoic acid], the IC50 was greater than 100 µM in experiment [2] (Table 10, PROTACs) and greater than 100 µM in experiment [1] (setting [4]).

Take `O=C(COc1cccc2c1C(=O)N(C1CCC(=O)NC1=O)C2=O)NCCCCn1cc(-c2ccc(-c3nc4ccccn4c3Nc3ccc(C(=O)O)cc3)cc2)nn1` (stereo not drawn) [XZ689, 4-((2-(4-(1-(4-(2-((2-(2,6-dioxopiperidin-3-yl)-1,3-dioxoisoindolin-4-yl)oxy)acetamido)butyl)-1H-1,2,3-triazol-4-yl)phenyl)imidazo[1,2-a]pyridin-3-yl)amino)benzoic acid]: the IC50 was greater than 100 µM in experiment [2] (Table 10, PROTACs) and greater than 100 µM in experiment [1] (setting [4]). For `Cc1cncc(Oc2ccc(/C=N/OCc3ccc(-c4nc5cc(-c6ccccc6)ccn5c4Nc4ccc(C(=O)O)cc4)cc3)cc2)n1` [XZ704, (E)-4-((2-(4-((((4-((6-methylpyrazin-2-yl)oxy)benzylidene)amino)oxy)methyl)phenyl)-7-phenylimidazo[1,2-a]pyridin-3-yl)amino)benzoic acid], the IC50 in experiment [2] (setting [5]) was greater than 100 µM. The “FC (fold change)” value in experiment [1] (Table 7, ratio of IC50 TDP2 to TDP1) was greater than 1.

As for `Cc1cncc(Oc2ccc(/C=N\OCc3ccc4nc(-c5ccccc5)c(Nc5ccc(C(=O)O)cc5)n4c3)cc2)n1` [XZ713, (Z)-4-((6-((((4-((6-Methylpyrazin-2-yl)oxy)benzylidene)amino)oxy)methyl)-2-phenylimidazo[1,2-a]pyridin-3-yl)amino)benzoic acid], the IC50 in experiment [2] (setting [5]) is greater than 100 µM.
